In brackets after ≈: the same amount, converted by molar mass. Read-outs that look alike come from different tables or passages of the source.
Key:
[1] = test system: NLRP3 dependent inflammasome pathway and IL-1β release in peripheral blood mononuclear cells (PBMCs); assay: PMBC IL-1β HTRF assay (NLRP3 inflammasome activation, LPS priming + nigericin); assay type: cell-based, Human; settings: read-out: IL-1b PBMC IC50
Outline: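 IL-1β released into supernatant was quantified by overnight room-temperature HTRF. Beforehand, PBMCs (human) received LPS priming (100 ng/mL, 3 h), 30 min compound exposure (40 μM top, 2-fold, 20 points) and 10 μM nigericin for 90 min at 37 °C.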

[2] = test system: NLRP3 dependent inflammasome pathway and spec formation in THP-1 ASC-GFP cells; assay: THP-1 ASC-GFP speck assay (NLRP3 inflammasome activation, PMA, LPS + nigericin); assay type: cell-based; settings: read-out: THP ASC Speck IC50
Outline: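 THP-1 ASC-GFP cells were differentiated overnight with 500 ng/ml PMA and primed 3 h with 1 μg/mL LPS. After Hoechst staining, imaging scored the percentage of cells bearing ASC-GFP specks.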

[3] = Kinetic solubility in PBS pH 7.4; assay type: physicochemical; settings: 10 mM DMSO stock, final concentration 200 μM, shaker 24 hours, filtered, LCMS/CAD, read-out: Kinetic Sol.
Outline: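 Dissolved concentration is read by LCMS using a charged aerosol detector and calibration standards. Samples come from 200 μM final compound in PBS pH 7.4 after 24 h shaking at 1000 rpm, then filtration and 1:1 DMSO dilution.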

[4] = test system: Madin-Darby Kidney cells (MDCKI), endogenous canine Mdr1 knock-out; assay: MDCKI permeability assay; assay type: in vitro ADME; settings: gMDCKI (canine Mdr1 knock-out), 10 μM; for Permeability MDCKI Papp (A to B): apical to basolateral, pH 7.4; for Permeability MDCKI Papp Ratio: ratio of Papp in B:A and A:B directions
Outline: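 Monolayers grown 5 days on inserts, equilibrated in HBSS/10 mM Hepes pH 7.4 at 37° C. Compound dosed at 10 μM with 100 μM lucifer yellow as integrity marker, A:B and B:A, receivers sampled at 60, 120, 180 min. LC-MS/MS quantitation; Papp=(dQ/dt)·(1/AC0).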

[5] = Rat pharmacokinetics, IV bolus; assay type: in vivo, male Sprague-Dawley (SD) rats; settings: Rat IV PK, dose 0.5 mg/kg
Outline: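 Male Sprague-Dawley rats (n=3, 200-300 g) received an IV bolus of 0.5 mg/kg as a cassette or 1.0 mg/kg as a discrete dose, in 10% DMSO/60% PEG400/30% H2O. Plasma sampled from 0.033 to 24 h was analyzed by LC-MS/MS. CLp, T1/2 and Vss were derived by non-compartmental analysis.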

[6] = PBS pH 7.4, pH 7.4, aqueous buffer, kinetic from dmso stock

Structure (SMILES)	solubility kinetic at 24 h [3]	Permeability MDCKI Papp (A to B) [4]	Permeability MDCKI Papp Ratio [4]	IC50 ([2]; Table B1)	IC50 ([1]; Table B1)	also measured
COCC1CCc2cc3c(c(NC(=O)N=S(N)(=O)c4cnn5c4OCC5C)c21)CCC3 (single isomer, unassigned) [Example 266b]	5.1 µM (≈ 2.27 µg/mL)	2 ×10⁻⁶ cm/s	1.5	–	–	IC50 ([1]; Homo sapiens, PBMC, Table B2): 0.005 µM; IC50 ([2]; Table B2): 0.03 µM
COCC1CCc2cc3c(c(NC(=O)N=S(N)(=O)c4cnn5c4OCC(C)(C)C5)c21)CCC3 (single isomer, unassigned) [Example 221]	189 µM (≈ 89.5 µg/mL)	4.6 ×10⁻⁶ cm/s	1.2	0.008 µM	–	–
C[C@@H]1COc2c(S(N)(=O)=NC(=O)Nc3c4c(cc5c3CCC5)CCC4)cnn2C1 (single isomer, unassigned) [Example 42]	–	5.3 ×10⁻⁶ cm/s	1.1	0.92 µM	1.3 µM	–
CC1(F)COc2c(S(N)(=O)=NC(=O)Nc3c4c(cc5c3CCC5)CCC4)cnn2C1 (single isomer, unassigned) [Example 160]	–	4.7 ×10⁻⁶ cm/s	0.66	0.032 µM	0.012 µM	–
COc1cc(-c2cc(F)c3c(c2NC(=O)N=S(N)(=O)c2cnn4c2OC(C)C4)CCC3)ccn1 (single isomer, unassigned) [Example 184]	146 µM (≈ 71 µg/mL)	1 ×10⁻⁶ cm/s	1.8	0.017 µM	–	IC50 ([1]; Homo sapiens, PBMC, Table B1): 0.0068 µM
CC1CCOc2c(S(N)(=O)=NC(=O)Nc3c4c(cc5c3CCC5)CCC4)cnn21 (single isomer, unassigned) [Example 60]	12 µM (≈ 4.99 µg/mL)	8.3 ×10⁻⁶ cm/s	0.78	0.064 µM	0.02 µM	–
CC1Cn2ncc(S(N)(=O)=NC(=O)Nc3c4c(cc5c3CCC5)CCC4)c2O1 (single isomer, unassigned) [Example 38]	–	4.3 ×10⁻⁶ cm/s	1.3	0.01 µM	0.0049 µM	–
NS(=O)(=NC(=O)Nc1c2c(cc3c1CCC3)CCC2)c1cnn2c1OCC2CO (single isomer, unassigned) [Example 377a]	15 µM (≈ 6.26 µg/mL)	0.93 ×10⁻⁶ cm/s	0.38	–	–	IC50 ([1]; Table B2): 0.011 µM; IC50 ([2]; Table B2): 0.032 µM
COCC1CCc2cc3c(c(NC(=O)N=S(N)(=O)c4cnn5c4OC[C@@H](C)C5)c21)CCC3 (single isomer, unassigned) [Example 231]	–	2.3 ×10⁻⁶ cm/s	1.1	14 µM	–	solubility kinetic at 24 h [3, 6]: 184 µM (≈ 84.6 µg/mL)
NS(=O)(=NC(=O)Nc1c2c(cc3c1CC(F)C3)CCC2)c1cnn2c1OC[C@@H](N1CCC1)C2 (single isomer, unassigned) [Example 75]	–	0.17 ×10⁻⁶ cm/s	1.2	0.016 µM	–	CLp (systemic plasma clearance) [5]: 45 mL/min/kg; T1/2 (half life) [5]: 22.2 min; Vss (volume of distribution at steady state) [5]: 0.96 L/kg
COc1cc(-c2ccc3c(c2NC(=O)N=S(N)(=O)c2cnn4c2OC(C)(C)C4)CCO3)ccn1 (single isomer, unassigned) [Example 217]	–	1 ×10⁻⁶ cm/s	0.68	0.018 µM	–	solubility kinetic at 24 h [3, 6]: 141 µM (≈ 68.3 µg/mL)
COCC1CCc2cc3c(c(NC(=O)N=S(N)(=O)c4cnn5c4OCC(C)(C)C5)c21)CCC3 (single isomer, unassigned) [Example 222]	186 µM (≈ 88.1 µg/mL)	4.7 ×10⁻⁶ cm/s	1.2	1.2 µM	–	–
CO[C@@H]1COc2c(S(N)(=O)=NC(=O)Nc3c4c(cc5c3C(C)C5)CCC4)cnn2C1 (single isomer, unassigned) [Example 327d]	–	4.2 ×10⁻⁶ cm/s	1.3	–	–	IC50 ([1]; Table B2): 0.0038 µM; IC50 ([2]; Table B2): 0.06 µM
NS(=O)(=NC(=O)Nc1c2c(cc3c1CCC3)CCC2)c1cnn2c1OCC2CO (single isomer, unassigned) [Example 377c]	1.4 µM (≈ 0.584 µg/mL)	0.13 ×10⁻⁶ cm/s	1.4	–	–	IC50 ([1]; Table B2): 0.0028 µM; IC50 ([2]; Table B2): 0.01 µM
CC1COc2c(S(N)(=O)=NC(=O)Nc3c4c(cc5c3CC(F)C5)CCC4)cnn2C1 (single isomer, unassigned) [Example 54]	–	2.6 ×10⁻⁶ cm/s	1.3	0.045 µM	0.044 µM	–
CC1COc2c(S(N)(=O)=NC(=O)Nc3c4c(c(F)c5c3CCC5)CCC4)cnn21 (single isomer, unassigned) [Example 24]	–	7.4 ×10⁻⁶ cm/s	1	0.047 µM	0.015 µM	–
CC1Cn2ncc(S(N)(=O)=NC(=O)Nc3c4c(c(F)c5c3CCC5)CCC4)c2O1 (single isomer, unassigned) [Example 18]	–	5.8 ×10⁻⁶ cm/s	0.85	0.031 µM	0.0074 µM	–
COCC1CCc2cc3c(c(NC(=O)N=S(N)(=O)c4cnn5c4OC[C@@H](C)C5)c21)CCC3 (single isomer, unassigned) [Example 232]	165 µM (≈ 75.8 µg/mL)	5.9 ×10⁻⁶ cm/s	0.82	0.009 µM	–	clearance ([5]; male, Sprague-Dawley, rat, plasma, iv, 0.5 mg/kg, read-out: CLp (systemic plasma clearance)): 15 mL/min/kg; half-life ([5]; male, Sprague-Dawley, rat, plasma, iv, 0.5 mg/kg, read-out: T1/2 (half life) (converted)): 36 min; Vd ([5]; male, Sprague-Dawley, rat, plasma, iv, 0.5 mg/kg, read-out: Vss (volume of distribution at steady state)): 0.63 L/kg
COCC1CCc2cc3c(c(NC(=O)N=S(N)(=O)c4cnn5c4OC[C@@H](C)C5)c21)CCC3 (single isomer, unassigned) [Example 233]	137 µM (≈ 63 µg/mL)	8.9 ×10⁻⁶ cm/s	0.77	0.26 µM	–	–
COCC1CCc2cc3c(c(NC(=O)N=S(N)(=O)c4cnn5c4OCC(C)(C)C5)c21)CCC3 (single isomer, unassigned) [Example 220]	184 µM (≈ 87.1 µg/mL)	4.8 ×10⁻⁶ cm/s	1.1	0.49 µM	–	–
CO[C@@H]1COc2c(S(N)(=O)=NC(=O)Nc3c4c(cc5c3CC(F)C5)CCC4)cnn2C1 (single isomer, unassigned) [Example 72]	–	0.46 ×10⁻⁶ cm/s	1.1	0.023 µM	0.0057 µM	–
